Drawing on PubChem BioAssay AID1963829 (Molecular Pharmacology Branch, DTP, NCI, 2024), this text covers IC50 and viability, T/C for six compounds.

The subject of this assay is 935938-334-R-J1-PDC complex spheroid viability. Put plainly: Anticancer human tumor 935938-334-R-J1-PDC patient-derived small intestine adenocarcinoma cell line growth inhibition [POLQ]. Conditions: for viability, T/C: stronger effect = lower value. As for the experimental part: Multicellular complex tumor spheroid response to Polymerase (POL) inhibitors (novobiocin, ART-558, RP6685) in combination with a variety of drugs and investigational agents in selected tumor cell lines
The POL inhibitors (novobiocin, ART-558, and RP6685) were evaluated both individually and in combination with standard of care and investigational anticancer small molecules within a complex spheroid model of solid tumors. . Complex spheroids include a stromal component modeled by human endothelial cells (HUVEC) and fibroblasts modeled by human mesenchymal stem cells (MSCs). The concentration ranges selected for each drug and investigational agent were based upon clinically achievable concentrations if the clinical Cmax of the agent was known.
Compounds. The drugs and investigational agents: novobiocin (NSC847541), ART-558 (NSC835418), RP-6685 (NSC848927), peposertib (NSC802822), ceralasertib (NSC780249), elimusertib (NSC800525), camonsertib (NSC841442), AZD-1390 (NSC803789), olaparib (NSC753686), talazoparib (NSC767125), rucaparib (NSC756644), sotorasib (NSC818433), MRTX-1133 (NSC836407), SN-38 (NSC673596), topotecan (NSC609699), epotoside (NSC141540), doxorubicin (NSC123127), gemcitabine (NSC613327), 5-fluorouracil (NSC19893), paclitaxel (NSC125973), vemurafenib (NSC761431), MSA-2 (NSC828583), SN-011 (NSC837082), adavosertib (NSC754352), prexasertib (NSC758257), carboplatin (NSC241240) and oxaliplatin (NSC266046), were obtained from the National Cancer Institute (NCI) Developmental Therapeutics Program Chemical Repository (21). The FDA-approved anticancer drug set is available from the Developmental Therapeutics Program at https://dtp.cancer.gov/organization/dscb/obtaining/. […] The stock solutions were prepared in dimethyl sulfoxide (DMSO, Sigma-Aldrich, St. Louis, MO, cat. D2650), except for the platinum compounds which were prepared in saline (Quality Biological, Gaithersburg, MD, cat. 114-055-101), at 800-fold the tested concentration and stored at -70 degrees C prior to their use. All drugs and investigational agents were tested over a range starting from a high concentration at or near the clinical Cmax and decreasing in half-log increments. If the clinical Cmax for an agent had not been determined, the highest concentration tested was 10 microM, except for SN-38, which was tested at a high concentration of 1 microM.
Cell Culture. All cells were maintained in an incubator at 37 degrees C and 5% CO2 with 95% humidity. The PDC lines were cultured according to standard operating procedures established by the NCI PDMR (https://pdmr.cancer.gov). Table 3 of the manuscript, lists the cell lines along with the number of the three cell types plated to form the mct-spheroids and media for tumor cell growth. After thawing, all PDC lines, except 997537-175-T-J1-PDC and 415267-285-R-J2-PDC, were cultured in Matrigel-coated flasks prepared with a working solution of 1X Ham's F-12 nutrient mix, without supplementation (Thermo Fisher Scientific, cat. 11765054), 100 U/mL penicillin-streptomycin (Thermo Fisher Scientific, cat. 15140122), and 2.5% Matrigel (Corning Inc., Corning, NY, cat. 354248) for the first three passages. The two PDC lines 997537-175-T-J1-PDC and 415267-285-R-J2-PDC were cultured on uncoated flasks. The 857933-349-R-J2-PDC line was cultured in 6C/Colon 1B media containing advanced DMEM/F-12 (Thermo Fisher Scientific, cat. 12634028), 10 mM HEPES (Thermo Fisher Scientific, cat. 15630080), 1X GlutaMAX supplement (Thermo Fisher Scientific, cat. 35050061), 0.1 mg/mL primocin (InvivoGen, San Diego, CA, cat. ant-pm-2), 10% defined fetal bovine serum, heat inactivated (HyClone Laboratories Inc., Logan, UT, cat. SH30070.03HI), 50% L-WRN conditioned media (ATCC, cat. CRL-3276), 1.25 mM N-Acetyl-L-cysteine (Sigma-Aldrich, cat. A9165), 10 mM nicotinamide (Sigma-Aldrich, cat. N0636), 1X B-27 supplement (Thermo Fisher Scientific, cat. 17504044), 1X N-2 supplement (Thermo Fisher Scientific, cat. […]

“And” between values parts separate entries of the source, which are not always exact repeats. Equal values may be shown once.
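Further: spheroids exposed to drugs for seven days before viability read.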
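Wherever viability, T/C is given: 100% = DMSO vehicle control wells.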

Consider `COc1cccc2c1C(=O)c1c(O)c3c(c(O)c1C2=O)CC(O)(C(=O)CO)CC3OC1CC(N)C(O)C(C)O1` (configuration not stated) + Nc1ccc(C#CCN(C(=O)Cc2ncc(C(F)(F)F)cc2C(F)(F)F)c2ccc(F)cc2)nn1, for which the IC50 by setting is: (curve of first compound, second compound 0.0316 µM) 70.9 nM; (curve of first compound, second compound 0.1 µM) 86.4 nM; (curve of first compound, second compound 0.316 µM) less than 31.6 nM; (curve of first compound, second compound 1 µM) 54.6 nM; (curve of first compound, second compound 3.16 µM) 35.3 nM; (curve of first compound, second compound 10 µM) 78.1 nM. The viability, T/C reads like this: (second compound 0.0316 µM, first compound 0.0316 µM) 67.3%; (second compound 0.0316 µM, first compound 0.1 µM) 39.4%; (second compound 0.0316 µM, first compound 0.316 µM) 27.4%; (second compound 0.0316 µM, first compound 1 µM) 22.2%; (second compound 0.0316 µM, first compound 3.16 µM) 8.04%; (second compound 0.0316 µM, first compound 10 µM) 3.61%. Moreover, the viability, T/C is 69.9% (second compound 0.1 µM, first compound 0.0316 µM); 45.5% (second compound 0.1 µM, first compound 0.1 µM); 31.3% (second compound 0.1 µM, first compound 0.316 µM); 19.6% (second compound 0.1 µM, first compound 1 µM); 7.02% (second compound 0.1 µM, first compound 3.16 µM); 3.54% (second compound 0.1 µM, first compound 10 µM). Besides, the viability, T/C is, setting by setting: (second compound 0.316 µM, first compound 0.0316 µM) 49.8%; (second compound 0.316 µM, first compound 0.1 µM) 32.1%; (second compound 0.316 µM, first compound 0.316 µM) 30.9%; (second compound 0.316 µM, first compound 1 µM) 23.7%; (second compound 0.316 µM, first compound 3.16 µM) 8.73%; (second compound 0.316 µM, first compound 10 µM) 3.32%. For the same compound, the viability, T/C is, setting by setting: (second compound 1 µM, first compound 0.0316 µM) 58.9%; (second compound 1 µM, first compound 0.1 µM) 38.8%; (second compound 1 µM, first compound 0.316 µM) 30.3%; (second compound 1 µM, first compound 1 µM) 18.8%; (second compound 1 µM, first compound 3.16 µM) 9.11%; (second compound 1 µM, first compound 10 µM) 4.86%. Also, the viability, T/C by setting is: (second compound 3.16 µM, first compound 0.0316 µM) 52.6%; (second compound 3.16 µM, first compound 0.1 µM) 35.4%; (second compound 3.16 µM, first compound 0.316 µM) 27.9%; (second compound 3.16 µM, first compound 1 µM) 20.3%; (second compound 3.16 µM, first compound 3.16 µM) 5.88%; (second compound 3.16 µM, first compound 10 µM) 5.57%. In addition, the viability, T/C was 68.1% (second compound 10 µM, first compound 0.0316 µM); 38.4% (second compound 10 µM, first compound 0.1 µM); 38% (second compound 10 µM, first compound 0.316 µM); 18.9% (second compound 10 µM, first compound 1 µM); 5.97% (second compound 10 µM, first compound 3.16 µM); 6.61% (second compound 10 µM, first compound 10 µM).

As for `CC(=O)O[C@H]1C(=O)[C@@]2(C)[C@H]([C@H](OC(=O)c3ccccc3)[C@]3(O)C[C@H](OC(=O)[C@H](O)[C@@H](NC(=O)c4ccccc4)c4ccccc4)C(C)=C1C3(C)C)[C@]1(OC(C)=O)CO[C@@H]1C[C@@H]2O`, the viability, T/C is, setting by setting: (compound 0.00949 µM) 35.5% and 53.2% and 37.8%; (compound 0.03 µM) 18.7% and 20.8% and 19.2%; (compound 0.0949 µM) 15.8% and 15.7% and 16%; (compound 0.3 µM) 12.4% and 16.4% and 17%; (compound 0.949 µM) 14.9% and 15.7% and 13.9%; (compound 3 µM) 17.9% and 19.1% and 19.5%. In addition, the IC50 (curve of compound) is < 9.49 nM and 10.6 nM.

As to `CCCS(=O)(=O)Nc1ccc(F)c(C(=O)c2c[nH]c3ncc(-c4ccc(Cl)cc4)cc23)c1F`, the viability, T/C is, setting by setting: (compound 0.0316 µM) 113% and 92.8% and 116%; (compound 0.1 µM) 119% and 111% and 89.6%; (compound 0.316 µM) 115% and 103% and 106%; (compound 1 µM) 108% and 102% and 121%; (compound 3.16 µM) 96.3% and 131% and 129%; (compound 10 µM) 46.3% and 53.5% and 37.2%. Where the note is “curve of compound”, the IC50 is 9270 nM and > 10000 nM and 8230 nM.

On to `CCc1c2c(nc3ccc(O)cc13)-c1cc3c(c(=O)n1C2)COC(=O)[C@]3(O)CC`, for which the viability, T/C (compound 0.00316 µM) is 59.3% and 81% and 86.5%; the viability, T/C (compound 0.01 µM) is 70.9% and 60% and 64%; the viability, T/C (compound 0.0316 µM) was 42.9% and 36.9% and 39.4%; the viability, T/C (compound 0.1 µM) was 31.1% and 30.2% and 33.9%; the viability, T/C (compound 0.316 µM) is 39.8% and 38.2% and 27.4%; the viability, T/C (compound 1 µM) is 35.2% and 33.7% and 25.6%. For the setting “curve of compound”, the IC50 is 21.9 nM and 16.3 nM and 20.1 nM.

Take `Nc1ccn(C2OC(CO)C(O)C2(F)F)c(=O)n1` (configuration not stated): the viability, T/C is 39.8% and 30.9% and 30.5% (compound 0.0316 µM); 26.2% and 19.4% and 23.6% (compound 0.1 µM); 23.7% and 17.5% and 14.9% (compound 0.316 µM); 22.1% and 18.1% and 16% (compound 1 µM); 20.7% (2×) and 16.5% (compound 3.16 µM); 18.4% and 16% and 17.2% (compound 10 µM). For the same compound, for the setting “curve of compound”, the IC50 is less than 31.6 nM.

On to `O=c1[nH]cc(F)c(=O)[nH]1`, for which the viability, T/C was 103% and 81.1% and 79.2% (compound 0.0316 µM); 114% and 90.2% and 81.6% (compound 0.1 µM); 113% and 80.6% and 77.4% (compound 0.316 µM); 90.5% and 72.5% and 74.6% (compound 1 µM); 75.5% and 63.4% and 54.9% (compound 3.16 µM); 59% and 54.3% and 47.8% (compound 10 µM). Under “curve of compound”, the IC50 is > 10000 nM and 7010 nM.
